Experimental data reported in US7034056B2, “Aryl and biaryl compounds having MCH modulatory activity” (Pharmacopeia Drug Discovery, inc., priority 2001, dated 2006).

Molecular target: T1, hMCHR (MCH receptor) (Homo sapiens, UniProt Q99705)
T1 construct: (or internally produced); host or cells: CHO (Chinese hamster ovary) cells, membrane preparation
Experiment: MCH Assay PCOP Protocol ([125I]-MCH SPA binding to hMCHR-CHO membranes);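 as to Activity (Ki range): A 0.4–50 nM B 51–500 nM C 501–2500 nM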
Settings: [125I]-MCH 0.5 nM, hMCHR-CHO membranes; read-out: Activity (ranges of Ki values)
Protocol: A reaction mixture of 10 μg hMCHR-CHO overexpressing membranes (from Receptor Biology, Inc., Beltsville, Md., or internally produced) and 100 μg/well WGA-SPA beads (from Amersham Pharmacia Biotech, Inc., Piscataway, N.J.)/100 μl was prepared in MCHR assay buffer (25 mM HEPES, pH 7.4, 10 mM NaCl, 10 mM MgCl2, 5 mM MnCl2, 0.1% BSA). […] The assay plates were shaken for 5 minutes on a plate shaker, then incubated for 2 hours before cpm/well were determined in a Microbeta Trilux counter (from PerkinElmer Wallac, Inc., Gaithersburg, Md.).

T1 sequence (Q99705 whole entry): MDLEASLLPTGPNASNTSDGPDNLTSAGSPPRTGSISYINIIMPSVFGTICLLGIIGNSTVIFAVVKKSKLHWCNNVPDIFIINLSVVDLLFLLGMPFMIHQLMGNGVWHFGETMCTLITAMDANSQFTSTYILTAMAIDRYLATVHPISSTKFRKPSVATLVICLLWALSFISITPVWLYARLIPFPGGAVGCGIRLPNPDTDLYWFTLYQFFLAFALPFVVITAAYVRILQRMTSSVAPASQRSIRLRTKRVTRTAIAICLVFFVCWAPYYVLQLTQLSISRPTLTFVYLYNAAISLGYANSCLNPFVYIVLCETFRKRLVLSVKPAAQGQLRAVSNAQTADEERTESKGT

Row | SMILES | Ki [µM]
1 | O=C(NCC(CCNC1CCCC1)c1ccc(-c2c(F)cccc2F)cc1)Nc1cc(Cl)cc(Cl)c1 (centres unmarked) [Example 100] | 0.051 to 0.5
2 | O=C(NCC(CCNC1CCCC1)c1ccc(Cl)c(Cl)c1)Nc1cccc(Br)c1 (centres unmarked) [Example 133] | 0.051 to 0.5
3 | CNCCC(CNC(=O)c1cc(F)cc(F)c1)c1ccc(-c2cccc(C#N)c2)cc1 (centres unmarked) [Example 70] | 0.051 to 0.5
4 | CN(C)CCCNCCC(CNC(=O)Nc1ccc(Cl)c([N+](=O)[O-])c1)c1ccc2c(c1)OCO2 (centres unmarked) [Example 120] | 0.501 to 2.5
5 | CN(C)CCCNCCC(CNC(=O)Nc1cc(Cl)cc(Cl)c1)c1cccc(-c2ccc(F)cc2)c1 (centres unmarked) [Example 165] | 0.501 to 2.5
6 | O=C(NCC(CCNC1CCCC1)c1ccc(Cl)c(Cl)c1)Nc1ccc(F)c([N+](=O)[O-])c1 (centres unmarked) [Example 141] | 0.501 to 2.5
7 | CS(=O)(=O)NC1CCN(CCC(CNC(=O)Nc2cc(Cl)cc(Cl)c2)c2ccc(Cl)cc2)CC1 (centres unmarked) [Example 179] | 0.051 to 0.5
8 | O=C(NCC(CCNC1CCCC1)c1ccc(Cl)cc1)Nc1cc(C(F)(F)F)cc(C(F)(F)F)c1 (centres unmarked) [Example 108] | 0.051 to 0.5
9 | COc1cc(CNCCC(CNC(=O)Nc2ccc(F)c([N+](=O)[O-])c2)c2ccc(Cl)c(Cl)c2)cc(OC)c1OC (centres unmarked) [Example 125] | 0.051 to 0.5
10 | N#Cc1cccc(-c2ccc(C(CCNC3CCCC3)CNC(=O)c3ccc(F)c(F)c3)cc2)c1 (centres unmarked) [Example 83] | 0.051 to 0.5
11 | Cc1ccc(C(CCNC2CCNC2)CNC(=O)Nc2ccc(Cl)c(Cl)c2)cc1 (centres unmarked) [Example 145] | 0.501 to 2.5
12 | O=C(NCC(CCNC1CCCC1)c1ccc2c(c1)OCO2)Nc1ccc(Cl)c([N+](=O)[O-])c1 (centres unmarked) [Example 104] | 0.051 to 0.5
13 | Cc1ccc(C(CCNC2CCCC2)CNC(=O)Nc2cc(Cl)cc(Cl)c2)cc1C (centres unmarked) [Example 103] | 0.051 to 0.5
14 | O=C(NCC(CCN1CCC(NC(=O)C2CCC2)C1)c1ccc(Cl)c(Cl)c1)Nc1cc(Cl)cc(Cl)c1 (centres unmarked) [Example 181] | 0.051 to 0.5
15 | CNCCC(C(=O)Nc1cc(Cl)cc(Cl)c1)c1ccc(-c2cccc(C#N)c2)cc1 (centres unmarked) [Example 31, 2-(3′-Cyano-biphenyl-4-yl)-N-(3,5-dichloro-phenyl)-4-methylamino-butyramide] | 0.501 to 2.5
16 | O=C(NCC(CCNC1CCCC1)c1ccc(-c2cc[n+]([O-])cc2)cc1)Nc1cc(Cl)cc(Cl)c1 (centres unmarked) [Example 37] | 0.0004 to 0.05
17 | O=C(NCC(CCN1CCC(NC(=O)C2CCC2)CC1)c1ccc(Cl)c(Cl)c1)Nc1cc(Cl)cc(Cl)c1 (centres unmarked) [Example 191] | 0.051 to 0.5
18 | Cc1ccc(C(CCNC2CCCC2)CNC(=O)Nc2ccc(Cl)c(Cl)c2)cc1 (centres unmarked) [Example 127] | 0.051 to 0.5
19 | CN(C)CCC(CNC(=O)Nc1cc(Cl)cc(Cl)c1)c1ccc(-c2ccncc2)cc1 (centres unmarked) [Example 39] | 0.051 to 0.5
20 | COc1ccccc1-c1cccc(C(CCNC2CCCC2)CNC(=O)Nc2cc(Cl)cc(Cl)c2)c1 (centres unmarked) [Example 164] | 0.501 to 2.5
21 | O=C(NCC(CCNC1CCCC1)c1cccc(-c2cccc(Cl)c2)c1)Nc1cc(Cl)cc(Cl)c1 (centres unmarked) [Example 158] | 0.051 to 0.5
22 | CN(C)CCCNCCC(CNC(=O)Nc1cc(Cl)cc(Cl)c1)c1cccc(-c2cccc(F)c2)c1 (centres unmarked) [Example 173] | 0.501 to 2.5
23 | O=C(NCC(CCNC1CCCC1)c1ccc(Cl)cc1)Nc1cccc(Br)c1 (centres unmarked) [Example 136] | 0.051 to 0.5
24 | O=C(NCC(CCNCCc1ccc(O)cc1)c1ccc(Cl)c(Cl)c1)Nc1ccc(F)c([N+](=O)[O-])c1 (centres unmarked) [Example 138] | 0.051 to 0.5
25 | Cc1ccc(C(CCN2CCC(NC(=O)c3cccs3)CC2)CNC(=O)Nc2cc(Cl)cc(Cl)c2)cc1 (centres unmarked) [Example 198] | 0.051 to 0.5
26 | O=C(NCC(CCN1CCC(NC(=O)c2cccs2)CC1)c1ccc(Cl)c(Cl)c1)Nc1cc(Cl)cc(Cl)c1 (centres unmarked) [Example 212] | 0.501 to 2.5
27 | N#Cc1cccc(-c2ccc(C(CCN3CCOCC3)CNC(=O)Nc3cc(Cl)cc(Cl)c3)cc2)c1 (centres unmarked) [Example 81] | 0.0004 to 0.05
28 | CN(C)CCCNCCC(CNC(=O)Nc1cc(Cl)cc(Cl)c1)c1ccc(-c2ccc(OC(F)(F)F)cc2)cc1 (centres unmarked) [Example 101] | 0.051 to 0.5
29 | O=C(NCC(CCN1CCC(NC(=O)c2cccs2)C1)c1ccc(Cl)c(Cl)c1)Nc1cc(Cl)cc(Cl)c1 (centres unmarked) [Example 190] | 0.051 to 0.5
30 | COc1cc(CNCCC(CNC(=O)Nc2cccc(C(F)(F)F)c2)c2ccc(Cl)c(Cl)c2)cc(OC)c1OC (centres unmarked) [Example 132] | 0.051 to 0.5

Same assay, conditions: [125I]-MCH SPA binding, hMCHR-CHO membranes; Ki class ranges; read-out: Activity (range of Ki)

Row | SMILES | Ki [µM]
31 | Cc1ccc(C(CCN2CCCCC2)CNC(=O)Nc2cc(C(F)(F)F)cc(C(F)(F)F)c2)cc1 (centres unmarked) [Example 445] | 0.501 to 2.5
32 | O=C(NCC(CCN1CCC(CN2CCCCC2)CC1)c1ccc(Cl)c(Cl)c1)Nc1cc(C(F)(F)F)cc(C(F)(F)F)c1 (centres unmarked) [Example 429] | 0.501 to 2.5
33 | CCCCN(CCC(CNC(=O)Nc1cc(C(F)(F)F)cc(C(F)(F)F)c1)c1ccc(Cl)c(Cl)c1)C1CC1 (centres unmarked) [Example 440] | 0.501 to 2.5
34 | COc1ccc2[nH]cc(CCNCCC(CNC(=O)Nc3cc(C(F)(F)F)cc(C(F)(F)F)c3)c3ccc(Cl)c(Cl)c3)c2c1 (centres unmarked) [Example 434] | 0.501 to 2.5
35 | O=C(NCC(CCN1CCC(N2CCCCC2)CC1)c1ccc(Cl)c(Cl)c1)c1cc(Cl)cc(Cl)c1 (centres unmarked) [Example 452] | 0.501 to 2.5

Same assay, conditions: [125I]-MCH binding to hMCHR-CHO membranes; class symbols for ranges of Ki; read-out: Activity (Ki range)

Row | SMILES | Ki [µM]
36 | O=S(=O)(NCC(CCNCCc1c[nH]c2ccccc12)c1cccc(Cl)c1)c1ccc(Cl)c(Cl)c1 (centres unmarked) [Example 340] | 0.501 to 2.5
37 | O=C(NCC(CCNC1CCCC1)c1ccc(Cl)cc1)Nc1cc(Cl)cc(Cl)c1 (centres unmarked) [Example 267] | 0.051 to 0.5
38 | Cc1ccc(C(CCNC2CCC2)CNC(=O)Nc2cc(C(F)(F)F)cc(C(F)(F)F)c2)cc1 (centres unmarked) [Example 274] | 0.051 to 0.5
39 | O=C(NCC(CCN1CCC(N2CCCCC2)CC1)c1ccc(Cl)c(Cl)c1)Nc1ccc(F)cc1 (centres unmarked) [Example 374] | 0.501 to 2.5
40 | CN(C)CCCNCCC(CNC(=O)Nc1cc(Cl)cc(Cl)c1)c1ccc(-c2cc(C(F)(F)F)cc(C(F)(F)F)c2)cc1 (centres unmarked) [Example 256] | 0.501 to 2.5
41 | O=C(NCC(CCNCc1ccc2c(c1)OCO2)c1ccc(Cl)c(Cl)c1)Nc1ccc(Cl)c(Cl)c1 (centres unmarked) [Example 296] | 0.501 to 2.5
42 | O=C(NCc1cc(C(F)(F)F)cc(C(F)(F)F)c1)C(CCN1CCC(O)(c2ccc(Cl)cc2)CC1)c1ccc(Cl)c(Cl)c1 (centres unmarked) [Example 390] | 0.501 to 2.5
43 | O=C(NCC(CCNCCc1c[nH]c2ccccc12)c1cccc(Cl)c1)Nc1cc(C(F)(F)F)cc(C(F)(F)F)c1 (centres unmarked) [Example 333] | 0.051 to 0.5
44 | CN(C)CCCNCCC(CNC(=O)Nc1cc(Cl)cc(Cl)c1)c1ccc(-c2ccccc2)cc1 (centres unmarked) [Example 233] | 0.051 to 0.5
45 | O=C(NCC(CCN1CCC(N2CCCCC2)CC1)c1ccc(Cl)c(Cl)c1)Nc1ccc(Br)cc1 (centres unmarked) [Example 326] | 0.501 to 2.5
46 | Cc1ccc(-c2ccc(C(CCNC3CCCC3)CNC(=O)Nc3cc(Cl)cc(Cl)c3)cc2)cc1 (centres unmarked) [Example 249] | 0.051 to 0.5
47 | CN(C)CCCNCCC(CNC(=O)Nc1cc(Cl)cc(Cl)c1)c1ccc(-c2cccc(Cl)c2)cc1 (centres unmarked) [Example 221] | 0.0004 to 0.05
48 | CN(C)CCCNCCC(CNC(=O)Nc1cc(Cl)cc(Cl)c1)c1ccc(-c2cccc(C#N)c2)cc1 (centres unmarked) [Example 218] | 0.0004 to 0.05
49 | O=C(NCC(CCN1CCCC1)c1ccc(Cl)c(Cl)c1)c1cc(C(F)(F)F)cc(C(F)(F)F)c1 (centres unmarked) [Example 406] | 0.501 to 2.5
50 | O=C(NCc1cc(C(F)(F)F)cc(C(F)(F)F)c1)C(CCN1CCCCC1CO)c1ccc(Cl)c(Cl)c1 (centres unmarked) [Example 383] | 0.501 to 2.5
51 | CN(CCC(CNC(=O)c1cc(C(F)(F)F)cc(C(F)(F)F)c1)c1ccc(Cl)c(Cl)c1)CC(=O)O (centres unmarked) [Example 393] | 0.501 to 2.5
52 | Cc1ccc(C(CCNC2CCCCC2)CNC(=O)Nc2cc(C(F)(F)F)cc(C(F)(F)F)c2)cc1 (centres unmarked) [Example 270] | 0.051 to 0.5

Row | SMILES | Ki [µM]
53 | CN(C)C1CCN(CCC(CNC(=O)Nc2ccc(Cl)c(Cl)c2)c2ccc(Cl)c(Cl)c2)C1 (centres unmarked) [Example 291] | 0.051 to 0.5
54 | Cn1cnc(CCNCCC(CNC(=O)Nc2cc(C(F)(F)F)cc(C(F)(F)F)c2)c2ccc(Cl)c(Cl)c2)c1 (centres unmarked) [Example 367] | 0.501 to 2.5
55 | O=C(NCC(CCNC1CCC1)c1ccc(Cl)cc1)Nc1cc(Cl)cc(Cl)c1 (centres unmarked) [Example 273] | 0.051 to 0.5
56 | O=C(NCC(CCNC1CCCC1)c1ccc(-c2ccsc2)cc1)Nc1cc(Cl)cc(Cl)c1 (centres unmarked) [Example 229] | 0.051 to 0.5
57 | O=C(NCC(CCNCc1ccc2c(c1)OCO2)c1ccc(Cl)c(Cl)c1)Nc1cc(C(F)(F)F)cc(C(F)(F)F)c1 (centres unmarked) [Example 319] | 0.501 to 2.5
58 | O=C(NCC(CCN1CCC(N2CCCCC2)CC1)c1ccc(Cl)c(Cl)c1)Nc1cccc(Cl)c1Cl (centres unmarked) [Example 358] | 0.501 to 2.5
59 | O=C(NCC(CCNC1CCCC1)c1ccc(-c2cc(Cl)cc(Cl)c2)cc1)Nc1cc(Cl)cc(Cl)c1 (centres unmarked) [Example 236] | 0.051 to 0.5
60 | O=C(NCC(CCN1CCNCC1)c1ccc(Cl)c(Cl)c1)Nc1ccc(Cl)c(Cl)c1 (centres unmarked) [Example 307] | 0.501 to 2.5
61 | CCOC(=O)N1CCC(NCCC(CNC(=O)Nc2cc(Cl)cc(Cl)c2)c2ccc(Cl)c(Cl)c2)CC1 (centres unmarked) [Example 277] | 0.051 to 0.5
62 | Cc1ccc(C(CCN2CCCCC2)CNC(=O)Nc2ccc(Cl)c(Cl)c2)cc1 (centres unmarked) [Example 352] | 0.051 to 0.5
63 | COc1cc(-c2ccc(C(CCNC3CCCC3)CNC(=O)Nc3cc(Cl)cc(Cl)c3)cc2)cc(OC)c1OC (centres unmarked) [Example 228] | 0.051 to 0.5
64 | COc1ccc(C(CCNCCc2c[nH]c3ccccc23)CNC(=O)Nc2cc(C(F)(F)F)cc(C(F)(F)F)c2)cc1 (centres unmarked) [Example 331] | 0.051 to 0.5
65 | Cc1cccc(C(CCN2CCCC2)CNC(=O)Nc2cc(C(F)(F)F)cc(C(F)(F)F)c2)c1 (centres unmarked) [Example 338] | 0.501 to 2.5
66 | CCCN(CC)CCC(CNC(=O)c1cc(C(F)(F)F)cc(C(F)(F)F)c1)c1ccc(Cl)c(Cl)c1 (centres unmarked) [Example 395] | 0.501 to 2.5
67 | O=C(NCC(CCN1CCCC1)c1cccc(F)c1)Nc1cc(C(F)(F)F)cc(C(F)(F)F)c1 (centres unmarked) [Example 341] | 0.501 to 2.5
68 | O=C(NCC(CCNC1CCCC1)c1ccc(-c2ccc(O)cc2)cc1)Nc1cc(Cl)cc(Cl)c1 (centres unmarked) [Example 242] | 0.051 to 0.5
